Data: PubChem BioAssay AID330 (DTP/NCI, 2004)
Where “and” joins values, the source holds several entries; their conditions need not be identical. Identical values can stand only once. Inconclusive results and toxic doses are left out.

Test system: P388 leukemia ip, CD2F1 mice, survival T/C
Assay: NCI In Vivo Anticancer Drug Screen. Data for tumor model P388 Leukemia (intraperitoneal) in CD2F1 (CDF1) mice
Details: endpoint: median survival time, higher = longer survival
Summary of the method: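 Mice carrying the transplanted tumor received test compound or vehicle. Survival was recorded in each group, and the value is the treated-group measurement divided by that of the vehicle-treated control group.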

[1] = dose: 25.0 mg/kg/injection, schedule: Q01DX005 (ip), vehicle: saline
[2] = dose: 50.0 mg/kg/injection, schedule: Q01DX005 (ip), vehicle: saline with Tween-80
[3] = dose: 100.0 mg/kg/injection, schedule: Q01DX005 (ip), vehicle: saline with Tween-80
[4] = dose: 200.0 mg/kg/injection, schedule: Q01DX005 (ip), vehicle: saline with Tween-80
[5] = dose: 25.0 mg/kg/injection, schedule: Q01DX005 (ip), vehicle: saline with Tween-80
[6] = dose: 60.0 mg/kg/injection, schedule: Q01DX005 (ip), vehicle: saline with Tween-80
[7] = dose: 120.0 mg/kg/injection, schedule: Q01DX005 (ip), vehicle: saline with Tween-80
[8] = dose: 240.0 mg/kg/injection, schedule: Q01DX005 (ip), vehicle: saline with Tween-80
[9] = dose: 50.0 mg/kg/injection, schedule: Q01DX009 (ip), vehicle: saline with Tween-80
[10] = dose: 100.0 mg/kg/injection, schedule: Q01DX009 (ip), vehicle: saline with Tween-80
[11] = dose: 200.0 mg/kg/injection, schedule: Q01DX009 (ip), vehicle: saline with Tween-80
[12] = dose: 100.0 mg/kg/injection, schedule: Q04DX002 (ip), vehicle: saline with Tween-80
[13] = dose: 200.0 mg/kg/injection, schedule: Q04DX002 (ip), vehicle: saline with Tween-80
[14] = dose: 400.0 mg/kg/injection, schedule: Q04DX002 (ip), vehicle: saline with Tween-80

## CC(C)CCCCCCCCCCCCC(=O)NCCC(=O)NC1C(CO)OC(Nc2ncnc3nc[nH]c23)C(O)C1O (configuration not stated)
dose: 0.39 mg/kg/injection, schedule: Q01DX009 (ip), vehicle: other
  T/C: 107 % of control
dose: 0.78 mg/kg/injection, schedule: Q01DX009 (ip), vehicle: other
  T/C: 102 % of control
dose: 1.56 mg/kg/injection, schedule: Q01DX009 (ip), vehicle: other
  T/C: 156 % of control
dose: 6.25 mg/kg/injection, schedule: Q01DX009 (ip), vehicle: other
  T/C: 112 % of control and 96 % of control
dose: 12.5 mg/kg/injection, schedule: Q01DX009 (ip), vehicle: other
  T/C: 93 % of control

## O=C1C=CC(=O)c2c1c(O)c1ccccc1c2Cl
dose: 6.25 mg/kg/injection, schedule: Q01DX005 (ip), vehicle: saline
  T/C: 102 % of control
dose: 12.5 mg/kg/injection, schedule: Q01DX005 (ip), vehicle: saline
  T/C: 95 % of control
[1]
  T/C: 93 % of control

## O=c1[nH]c(=O)c2cc3cn[nH]c3cc2[nH]1
[2]
  T/C: 92 % of control
[3]
  T/C: 89 % of control
[4]
  T/C: 101 % of control

## CCN(CC)Cc1cc2[nH]c3c4ccc(Cl)cc4ncc3c2cc1OC (tested in a mixture with another compound)
dose: 12.5 mg/kg/injection, schedule: Q01DX005 (ip), vehicle: saline with Tween-80
  T/C: 100 % of control and 108 % of control
[5]
  T/C: 109 % of control [middle of 4 runs]
[2]
  T/C: 102 % of control and 103 % of control and 113 % of control
[3]
  T/C: 105 % of control and 109 % of control and 106 % of control

## O=C=Nc1ccc(Cc2ccc(N=C=O)cc2)cc1
dose: 100.0 mg/kg/injection, schedule: Q01DX009 (ip), vehicle: Klucel (hydroxypropylcellulose) (HPC)
  T/C: 103 % of control
dose: 200.0 mg/kg/injection, schedule: Q01DX009 (ip), vehicle: Klucel (hydroxypropylcellulose) (HPC)
  T/C: 98 % of control
dose: 400.0 mg/kg/injection, schedule: Q01DX009 (ip), vehicle: Klucel (hydroxypropylcellulose) (HPC)
  T/C: 93 % of control

## C=C1C(=O)N2c3ccccc3C(C)(C)C2(S)C(=O)N1C (configuration not stated)
dose: 50.0 mg/kg/injection, schedule: Q01DX009 (ip), vehicle: saline
  T/C: 102 % of control
dose: 100.0 mg/kg/injection, schedule: Q01DX009 (ip), vehicle: saline
  T/C: 100 % of control
dose: 200.0 mg/kg/injection, schedule: Q01DX009 (ip), vehicle: saline
  T/C: 100 % of control

## OC[C@H]1N[C@H](CO)[C@@H](O)[C@H]1O
dose: 60.0 mg/kg/injection, schedule: Q01DX005 (ip), vehicle: saline
  T/C: 100 % of control
dose: 120.0 mg/kg/injection, schedule: Q01DX005 (ip), vehicle: saline
  T/C: 99 % of control
dose: 240.0 mg/kg/injection, schedule: Q01DX005 (ip), vehicle: saline
  T/C: 103 % of control

## CC(=O)CCC1C(=O)N(C)C(=O)c2ccccc21 (configuration not stated)
[6]
  T/C: 98 % of control
[7]
  T/C: 99 % of control
[8]
  T/C: 91 % of control

## CN(C)c1nc(=[N+](C)C)ss1
[9]
  T/C: 90 % of control
[10]
  T/C: 100 % of control
[11]
  T/C: 113 % of control

## CNc1[nH]c(=O)ncc1N
dose: 25.0 mg/kg/injection, schedule: Q01DX005 (ip), vehicle: Klucel (hydroxypropylcellulose) (HPC)
  T/C: 98 % of control
dose: 50.0 mg/kg/injection, schedule: Q01DX005 (ip), vehicle: Klucel (hydroxypropylcellulose) (HPC)
  T/C: 98 % of control
dose: 100.0 mg/kg/injection, schedule: Q01DX005 (ip), vehicle: Klucel (hydroxypropylcellulose) (HPC)
  T/C: 98 % of control

## COc1ccc(C(=O)C(CN2CCCC2)CN2CCCC2)cc1
dose: 7.5 mg/kg/injection, schedule: Q01DX005 (ip), vehicle: saline
  T/C: 111 % of control
dose: 7.5 mg/kg/injection, schedule: Q01DX009 (ip), vehicle: saline
  T/C: 112 % of control
dose: 15.0 mg/kg/injection, schedule: Q01DX004 (ip), vehicle: saline
  T/C: 122 % of control
dose: 15.0 mg/kg/injection, schedule: Q01DX005 (ip), vehicle: saline
  T/C: 121 % of control
dose: 15.0 mg/kg/injection, schedule: Q01DX009 (ip), vehicle: saline
  T/C: 123 % of control
dose: 30.0 mg/kg/injection, schedule: Q01DX004 (ip), vehicle: saline
  T/C: 115 % of control
dose: 60.0 mg/kg/injection, schedule: Q01DX004 (ip), vehicle: saline
  T/C: 108 % of control

## O=C1CSCN1N1CSCC1=O
[2]
  T/C: 101 % of control
[3]
  T/C: 102 % of control
[4]
  T/C: 98 % of control

## CC1=C(c2ccccc2)CS1(=O)=O
[12]
  T/C: 101 % of control
[13]
  T/C: 99 % of control
[14]
  T/C: 110 % of control

## O=C(CC(=O)c1ccccc1)C(=O)CC(=O)c1ccccc1
[12]
  T/C: 103 % of control
[13]
  T/C: 99 % of control
[14]
  T/C: 99 % of control

## CCNc1ncc2c(n1)N(CC)C(=O)/C(=C\C(=O)OC)N2
dose: 37.5 mg/kg/injection, schedule: Q01DX009 (ip), vehicle: saline with Tween-80
  T/C: 94 % of control
dose: 150.0 mg/kg/injection, schedule: Q01DX009 (ip), vehicle: saline with Tween-80
  T/C: 93 % of control

## CCOC(=O)C(=O)Nc1c(C(C)=O)cc(C)c(C)c1C#N
dose: 50.0 mg/kg/injection, schedule: Q01DX009 (ip), vehicle: saline + alcohol
  T/C: 92 % of control
dose: 100.0 mg/kg/injection, schedule: Q01DX009 (ip), vehicle: saline + alcohol
  T/C: 97 % of control
dose: 200.0 mg/kg/injection, schedule: Q01DX009 (ip), vehicle: saline + alcohol
  T/C: 96 % of control

## CN1C(=O)C23CC4=CC=CC(O)C4N2C(=O)C1(CO)SS3 (configuration not stated)
dose: 0.62 mg/kg/injection, schedule: Q04DX002 (ip), vehicle: saline with Tween-80
  T/C: 103 % of control
dose: 1.25 mg/kg/injection, schedule: Q04DX002 (ip), vehicle: saline with Tween-80
  T/C: 104 % of control
dose: 2.5 mg/kg/injection, schedule: Q04DX002 (ip), vehicle: saline with Tween-80
  T/C: 119 % of control

## CC1(C)N=C(N/N=C/c2ccccc2)SP1(=O)NNc1ncccn1 (configuration not stated)
dose: 60.0 mg/kg/injection, schedule: Q01DX005 (ip), vehicle: Klucel (hydroxypropylcellulose) (HPC)
  T/C: 101 % of control
dose: 120.0 mg/kg/injection, schedule: Q01DX005 (ip), vehicle: Klucel (hydroxypropylcellulose) (HPC)
  T/C: 103 % of control

## Cc1ccccc1N=C(N)Nc1ccccc1C
dose: 2.5 mg/kg/injection, schedule: Q01DX009 (ip), vehicle: saline with Tween-80
  T/C: 95 % of control
dose: 5.0 mg/kg/injection, schedule: Q01DX009 (ip), vehicle: saline with Tween-80
  T/C: 100 % of control
dose: 10.0 mg/kg/injection, schedule: Q01DX009 (ip), vehicle: saline with Tween-80
  T/C: 100 % of control

## CNCCCN1c2ccccc2CCc2ccccc21
[2]
  T/C: 103 % of control

## Cc1cc[n+](C2=C(Nc3c(C)cccc3C)C(=O)c3ccccc3C2=O)cc1
[6]
  T/C: 102 % of control
[7]
  T/C: 102 % of control
[8]
  T/C: 114 % of control

## O=[N+]([O-])c1ccc(NN=C2CCCCC2)c([N+](=O)[O-])c1
dose: 25.0 mg/kg/injection, schedule: Q04DX003 (ip), vehicle: Klucel (hydroxypropylcellulose) (HPC)
  T/C: 103 % of control
dose: 50.0 mg/kg/injection, schedule: Q04DX003 (ip), vehicle: Klucel (hydroxypropylcellulose) (HPC)
  T/C: 104 % of control
dose: 100.0 mg/kg/injection, schedule: Q04DX003 (ip), vehicle: Klucel (hydroxypropylcellulose) (HPC)
  T/C: 105 % of control
dose: 200.0 mg/kg/injection, schedule: Q04DX003 (ip), vehicle: Klucel (hydroxypropylcellulose) (HPC)
  T/C: 112 % of control

## COc1ccc(NC(=O)Nc2ccc(-c3ccc(NC(=O)Nc4ccc(OC)cc4)c(C)c3)cc2C)cc1
[5]
  T/C: 100 % of control
[2]
  T/C: 87 % of control and 94 % of control
[3]
  T/C: 91 % of control
[4]
  T/C: 90 % of control

## CC[n+]1c(C)sc2ccccc21
[1]
  T/C: 91 % of control
dose: 50.0 mg/kg/injection, schedule: Q01DX005 (ip), vehicle: saline
  T/C: 94 % of control

## CSC(C=C1C=CN(CC(=O)c2ccccc2)C=C1)=C(C#N)C#N
dose: 25.0 mg/kg/injection, schedule: Q04DX002 (ip), vehicle: saline with Tween-80
  T/C: 97 % of control
dose: 50.0 mg/kg/injection, schedule: Q04DX002 (ip), vehicle: saline with Tween-80
  T/C: 102 % of control
[12]
  T/C: 99 % of control

## CC(CC(=O)O)(CC(=O)O)CC(=O)O
[9]
  T/C: 110 % of control
[10]
  T/C: 101 % of control
[11]
  T/C: 97 % of control
